The values that follow come from US6218393A, “Anthranilic acid derivatives as multi drug resistance modulators” (priority 1997, dated 2001).

Where only a bound is given, the exact number is not on record here.

This assay has as its system AR 1.0 cells. The assay can be described thus: Drug accumulation assay: daunorubicin accumulation in AR 1.0 cells. The class given is cell-based. Particulars: Mus musculus, 100% = accumulation with verapamil 100 μM, 1 hr, 37° C. The protocol:
The EMT6 mouse mammary carcinoma cell line and the MDR resistant subline AR 1.0 were cultured in RPMI 1640 medium containing 10% foetal calf serum and 2 mM glutamine at 37° C. in 5% CO2. Cells were passaged between 1 in 200 and 1 in 2000 in the case of the parental cell line and between 1 in 20 and 1 in 200 in the case of the MDR resistant subline, after trypsinisation (0.25% trypsin, 0.2 gl^-1, EDTA).
AR 1.0 cells were seeded 48 hours prior to assay into 96 well opaque culture plates (Canberra Packard).
As a reminder, the IC50 is the concentration needed to halve the response being measured. A high value points to weaker potency in that assay. Compound `COc1cc2c(cc1OC)CN(CCNC(=O)c1ccccc1NC(=O)c1ccc3c(c1)OCO3)CC2` [compound 9302, Benzo[1,3]dioxole-5-carboxylic acid {2-[2-(6,7-dimethoxy-3,4-dihydro-1H-isoquinolin-2-yl)-ethylcarbamoyl]-phenyl}-amide] had an IC50 of 5000 nM.
To `COc1cc2c(cc1OC)CN(CCc1ccc(NC(=O)c3ccccc3NC(=O)c3ccc(O)cc3)cc1)CC2` [compound 9559, 2-(4-Hydroxy-benzoylamino)-N-{4-[2-(6,7-dimethoxy-3,4-dihydro-1H-isoquinolin-2-yl)-ethyl]-phenyl}-benzamide] belongs 2060 nM; to `COc1cc2c(cc1OC)CN(CCOc1ccc(NC(=O)c3ccccc3NC(=O)c3cnc4ccccc4c3)cc1)CC2` [compound 9623, Quinoline-3-carboxylic acid (2-{4-[2-(6,7-dimethoxy-3,4-dihydro-1H-isoquinolin-2-yl)-ethoxy]-phenylcarbamoyl}-phenyl)-amide], 1890 nM.
To `O=C(Nc1ccccc1C(=O)NCCN1CCc2ccccc2C1)c1ccc(C2CCCCC2)cc1` [compound 9479, 2-(4-Cyclohexyl-benzoylamino)-N-[2-(3,4-dihydro-1H-isoquinolin-2-yl)-ethyl]-benzamide] belongs 2100 nM; to `COc1cc2c(cc1OC)CN(CCNC(=O)c1ccccc1NC(=O)c1cccnc1)CC2` [compound 9359, N-{2-[2-(6,7-Dimethoxy-3,4-dihydro-1H-isoquinolin-2-yl)-ethylcarbamoyl]-phenyl}-nicotinamide], more than 10000 nM.
To `COc1cc2c(cc1OC)CN(CCNC(=O)c1cccc(C)c1NC(=O)c1ccc(C(C)C)cc1)CC2` [compound 9398, 2-(4-Isopropyl-benzoylamino)-N-[2-(6,7-dimethoxy-3,4-dihydro-1H-isoquinolin-2-yl)-ethyl]-3-methyl-benzamide] belongs 1500 nM; to `COc1cc2c(cc1OC)CN(CCNC(=O)c1cccc(OC)c1NC(=O)c1ccc(C(C)C)cc1)CC2` [compound 9399, 2-(4-Isopropyl-benzoylamino)-N-[2-(6,7-dimethoxy-3,4-dihydro-1H-isoquinolin-2-yl)-ethyl]-3-methoxy-benzamide], 5000 nM.
Turning to `COc1cc2c(cc1OC)CN(CCNC(=O)c1ccccc1NC(=O)c1cnccn1)CC2` [compound 9391, Pyrazine-2-carboxylic acid {2-[2-(6,7-dimethoxy-3,4-dihydro-1H-isoquinolin-2-yl)-ethylcarbamoyl]-phenyl}-amide], the IC50 was more than 10000 nM.
To `COc1cc2c(cc1OC)CN(CCNC(=O)c1cccc(Cl)c1NC(=O)c1ccc(C(C)C)cc1)CC2` [compound 9401, 2-(4-Isopropyl-benzoylamino)-N-[2-(6,7-dimethoxy-3,dihydro-1H-isoquinolin-2-yl)-ethyl]-3-chioro-benzamide] belongs 3000 nM.
To `COc1cc2c(cc1OC)CN(CCc1ccc(NC(=O)c3c(C)cccc3NC(=O)c3ccccc3)cc1)CC2` [compound 9512, 2-Benzoylamino-N-{4-[2-(617-dimethoxy-3,4-dihydro-1H-isoquinolin-2-yl)-ethyl]-phenyl}-6-methyl-benzamide] belongs 3900 nM.
To `COc1cc2c(cc1OC)CN(CCc1ccc(NC(=O)c3ccccc3NC(=O)c3cnc4cc(C(F)(F)F)ccc4c3O)cc1)CC2` [compound 9592, 4-Hydroxy-7-trifluoromethyl-quinoline-3-carboxylic acid (2-{4-[2-(6,7-dimethoxy-3,4-dihydro-1H-isoquinolin-2-yl)-ethyl]-phenylcarbamoyl}-phenyl)-amide] belongs more than 10000 nM.
`COc1ccc(CN(CCc2ccc(NC(=O)c3ccccc3NC(=O)c3cnc4ccccc4c3)cc2)C(C)C)cc1OC` [compound 9669, Quinoline-3-carboxylic acid [2-(4-{2-[(3,4-dimethoxy-benzyl)-isopropyl-amino]-ethyl}-phenylcarbamoyl)-phenyl]-amide] came in with an IC50 of 469 nM.
The figure for `COc1ccc(C(=O)Nc2ccccc2C(=O)Nc2ccc(CCN3CCc4cc(OC)c(OC)cc4C3)cc2)cn1` [compound 9582, N-(2-{4-[2-(6,7-Dimethoxy-3,4-dihydro-1H-isoquinolin-2-yl)-ethyl]-phenylcarbamoyl}-phenyl)-6-methoxy-nicotinamide] is 1270 nM.
The figure for `COc1cc2c(cc1OC)CN(CCc1cccc(NC(=O)c3ccccc3NC(=O)c3cnc(C)cn3)c1)CC2` [compound 9653, 5-Methyl-pyrazine-2-carboxylic acid (2-{3-[2-(6,7-dimethoxy-3,4-dihydro-1H-isoquinolin-2-yl)-ethyl]-phenylcarbamoyl}-phenyl)-amide] is 490 nM.
To `COc1cc(CCN2CCc3cc(OC)c(OC)cc3C2)ccc1NC(=O)c1ccccc1NC(=O)c1cnccn1` [compound 9659, Pyrazine-2-carboxylic acid (2-{4-[2-(6,7-dimethoxy-3,4-dihydro-1H-isoquinolin-2-yl)-ethyl]-2-methoxy-phenylcarbamoyl}-phenyl)-amide] belongs 1380 nM; to `COc1cc2c(cc1OC)CN(CCc1ccc(NC(=O)c3ccccc3NC(=O)c3cccc(N(C)C)c3)cc1)CC2` [compound 9556, 2-(3-Dimethylamino-benzoylamino)-N-{4-[2-(6,7-dimethoxy-3,4-dihydro-1H-isoquinolin-2-yl)-ethyl]-phenyl}-benzamide], 860 nM; to `CCCCOc1cc(CN(C)CCc2ccc(NC(=O)c3cc(OC)c(OC)cc3NC(=O)c3cnc4ccccc4c3)cc2)ccc1OC` [compound 9656, Quinoline-3-carboxylic acid [2-(4-{2-[(3-butoxy-4-methoxy-benzyl)-methyl-amino]-ethyl}-phenylcarbamoyl)-4,5-dimethoxy-phenyl]-amide], 188 nM.
Consider `COc1ccc(CN(C)CCc2ccc(NC(=O)c3cc(F)c(F)cc3NC(=O)c3cnc4ccccc4c3)cc2)cc1OC` [compound 9667, Quinoline-3-carboxylic acid [2-(4-{2-[(3,4-dimethoxy-benzyl)-methyl-amino]-ethyl}-phenylcarbamoyl)-4,5-difiuoro-phenyl]-amide], for which 76 nM corresponded to half-maximal inhibition (IC50).
For the compound `O=C(Nc1ccccc1C(=O)Nc1ccc(CCN2CCc3ccc([N+](=O)[O-])cc3C2)cc1)c1cnc2ccccc2c1` [compound 9634, Quinoline-3-carboxylic acid (2-{4-[2-(7-nitro-3,4-dihydro-1H-isoquinolin-2-yl)-ethyl]-phenylcarbamoyl}-phenyl)-amide], the IC50 is 6960 nM.
The compound `O=C(Nc1ccccc1C(=O)Nc1ccc(CCN2CCc3cc(Cl)c(Cl)cc3C2)cc1)c1cnc2ccccc2c1` [compound 9628, Quinoline-3-carboxylic acid (2-{4-[2-(6,7-dichloro-3,4-dihydro-1H-isoquinolin-2-yl)-ethyl]-phenylcarbamoyl}-phenyl)-amide] yielded an IC50 of 2270 nM.
To `COc1ccc(CN(C)CCc2ccc(NC(=O)c3ccc(C)cc3NC(=O)c3cnc4ccccc4c3)cc2)cc1OC` [compound 9668] belongs 87 nM; to `COc1cc2c(cc1OC)CN(CCc1ccc(NC(=O)c3ccccc3NC(=O)c3ccc(F)cc3F)cc1)CC2` [compound 9513, 2-(2,4-Difluoro-benzoylamino)-N-{4-[2-(6,7-dimethoxy-3,4-dihydro-1H-isoquinolin-2-yl)-ethyl]-phenyl}-benzamide], 200 nM.
